Measurements taken from patent US20250327028A1, “ENGINEERED PLATELETS AS TARGETED PROTEIN DEGRADERS” (Wisconsin Alumni Research Foundation, priority 2024, published 2025).

How the values were obtained:
WT MDA-MB-231 cells = assay: In-gel fluorescence detection of NA-647 internalization in WT MDA-MB-231 cells; assay type: cell-based, human
Description: In-gel fluorescence detection: In-gel fluorescence was mainly used to investigate the internalization of NeutrAvidin™_647 in HAC-B-treated cancer cells.
Sample preparation: 4T1 or WT MDA-MB-231 cells were seeded in 6-well culture plates with a density of 5×10^4 cells in each well and cultured for 24 h. If HAI pretreatment was performed, the cells were incubated in the HAI-containing blank medium at different concentrations for 2 h and washed with PBS twice before the following treatments. Then, the cells were treated with free HAC-B or the combinations of various ligands at the indicated concentrations for the predetermined time points. Next, the drug-containing medium was removed, and PBS was used to wash the cells twice, followed by incubating the cells in the blank medium containing NeutrAvidin™ DyLight™ 650 (NA-647, Invitrogen/84607) at 0.5 μM for 1 h. Finally, the cells were washed with PBS and lysed on ice with the RIPA buffer containing PMSF (1 mM) and the phosphatase inhibitor cocktail for 30 min. A s for the 4T1 cells cotreated with NA-647 and HAC-B, the cells after 24-h incubation were treated with the blank medium containing NA-647 at 0.5 μM and HAC-B at various concentrations for 2 h before cell lysis.
In-gel fluorescence imaging: After 30-min lysis, the lysates were centrifuged at 10,000 g for 10 minutes at 4° C., and the corresponding supernatants were collected, followed by quantification of the total proteins in the supernatant through the BCA assay. Afterward, the proteins in the supernatant were mixed with ¼ volume of 5× sample buffer formulated by Tris-HCl (pH 6.8, 312.5 mM), sucrose (25%), SDS (10%), bromophenol blue (0.025%), and dithiothreitol (DTT, 250 mM). After incubation for 1 h at room temperature, equal amounts of proteins from different samples ([…] per lane) were loaded into the 12% Bis-Tris gel. After the proteins were separated, the gels were subjected to fluorescence imaging with the ChemiDoc™ MP imaging system (Bio-Rad).

4T1 cells = assay: HAC-B-mediated internalization of streptavidin in 4T1 cells; assay type: cell-based, murine; conditions: 4T1 cells pretreated 5 μM 2 h, vs cells without pretreatment
Description: HAC-B-mediated internalization of streptavidin in 4T1 cells: 5×10^4 4T1 cells were seeded in a confocal dish and cultured for 24 h at 37° C. Then, the cells were treated with free HAC-B at 5 μM for 2 h. Next, the drug-containing medium was removed, and PBS was used to wash the cells twice, followed by incubating the cells in the blank medium containing streptavidin-FITC at 0.5 μM for 1 h. For cotreatment, 4T1 cells were cotreated with 5 μM HAC-B and 0.5 μM FITC-SA for 1 h. Before staining with Hoechst 33342, the cells were washed with PBS twice and fixed with 4% PFA at room temperature for 20 min. Finally, the cells were subjected to Leica SP8 Confocal WLL STED microscopy for observation.

BRD4 = target: T1, BRD4 (Homo sapiens, UniProt O60885); assay: Immunoblot analysis of BRD4 degradation in HSP90α-KO MDA-MB-231 cells; assay type: cell-based; conditions: 24 h
T1 construct: endogenous in cells; host or cells: WT MDA-MB-231 (ATCC)
Source text: Immunoblot analysis: Immunoblot analysis was used to evaluate the expression of BRD4, HSP90, HSP90a, and PD-L1 in 4T1, WT MDA-MB-231, HSP90α-KO MDA-MB-231 or PEA-10 cells after various treatments and also served as the detection method for IP or co-IP experiments. The procedures for preparing IP or co-IP samples were indicated in the relevant experimental parts.
Sample preparation for various cancer cells after free HAC treatment: Various cells, including 4T1, WT MDA-MB-231, HSP90α-KO MDA-MB-231, or PEA-10 cells, were seeded in 6-well culture plates with a density of 5×10^4 cells in each well and cultured for 24 h. Then, if HAI pretreatment was performed, the cells were incubated in the HAI-containing blank medium at different concentrations for 2 h and washed with PBS twice before the following treatments. […]
General procedures for immunoblot analysis: After a 30-min lysis, the lysates were centrifuged at 10,000 g for 10 minutes at 4° C., and the corresponding supernatants were collected, followed by quantification of the total proteins in the supernatant through the BCA assay. […] Finally, the bands were treated with electrochemiluminescence (ECL) western blot substrate, detected by the iBright™ imaging system and quantified with ImageJ software. […]

Row | SMILES | internalization of NA-647 after optimized pretreatment (WT MDA-MB-231 cells; HAC-B pretreatment 5 μM, 4 h) | internalization of extracellular NA-647 (WT MDA-MB-231 cells; WT MDA-MB-231 cells, HAC-B pretreatment, then NA-647 0.5 μM 1 h) | internalization of streptavidin-FITC (4T1 cells) | remaining BRD4 degradation potency (BRD4) | effect of HSP90α deficiency on BRD4 degradation efficacy (BRD4; lower and higher concentration ranges)
1 | N#CCN(C(=O)CCCC[C@@H]1SC[C@@H]2NC(=O)N[C@@H]21)S(=O)(=O)c1ccc(C(=O)NCCCn2c(Sc3cc4c(cc3I)OCO4)nc3c(N)ncnc32)cc1 [HAC-B, N-(3-(6-amino-8-((6-iodobenzo[d][1,3]dioxol-5-yl)thio)-9H-purin-9-yl)propyl)-4-(N-(cyanomethyl)-N-(5-((3aS,4S,6aR)-2-oxohexahydro-1H-thieno[3,4-d]imidazol-4-yl)pentanoyl)sulfamoyl)benzamide] | substantially internalize NA-647 | enhance the internalization of extracellular NA-647 in a time and concentration-dependent manner | much stronger green fluorescence signals |  | 
2 | Cc1sc2c(c1C)C(c1ccc(Cl)cc1)=N[C@@H](CC(=O)NCc1cn(CCCC(=O)N(CC#N)S(=O)(=O)c3ccc(C(=O)NCCCn4c(Sc5cc6c(cc5I)OCO6)nc5c(N)ncnc54)cc3)nn1)c1nnc(C)n1-2 [iHAC, (S)—N-(3-(6-amino-8-((6-iodobenzo[d][1,3]dioxol-5-yl)thio)-9H-purin-9-yl)propyl)-4-(N-(4-(4-((2-(4-(4-chlorophenyl)-2,3,9-trimethyl-6H-thieno[3,2-f][1,2,4]triazolo[4,3-a][1,4]diazepin-6-yl)acetamido)methyl)-1H-1,2,3-triazol-1-yl)butanoyl)-N-(cyanomethyl)sulfamoyl)benzamide] |  |  |  | partially maintains the degradation potency | substantially compromised the BRD4 degradation efficacy
